Results: US9006487B2, “Amine-containing lipids and uses thereof” (Massachusetts Institute of Technology, priority 2005, dated 2015)
“And” between values parts separate entries of the source, which are not always exact repeats. Equal entries are not always repeated.

test system: cos-7 cells; test: DNA transfection: luciferase expression relative to Lipofectamine 2000; assay type: cell-based; details: lipid/DNA 2.5 w/w; 300 ng Luciferase DNA per well; luciferase assay after 48 hours
Procedure: 14,000 cos-7 cells (ATCC, Manassas, Va.) were seeded into each well of a solid white or clear 96 well plate (Corning-Costar, Kennebunk, Me.) and allowed to attached overnight in growth medium, composed of: 500 ml phenol red minus DMEM, 50 ml heat inactivated FBS, 5 ml penicillin/streptomycin (Invitrogen, Carlsbad, Calif.).
A small liquot of lipid was tranferred to an Eppendorf tube. Based on the mass of the lipid in the tube, sterile 25 mM sodium acetate buffer was added to each tube to yield a concentration of 60 mg/ml. The resulting mixture was vortexed for approximately 20 minutes until the lipid was fully dissolved. DNA was prepared based on 300 ng DNA per well of a 96-well plate. 291 μg of Lc DNA was dissolved in 9210 μl of 25 mM sodium acetate buffer. Aliquots of 30 μl of DNA solution were added to each well expect for the last column which was reserved for the Lipo2000 standard. For the last column of the plate, 61 μg of DNA was added to 1940 μl Optimem. 150 μl of media/Optimem was added to each well of plates. 50 μl of lipid solution was aliquoted into wells of robot plate. The following amounts were aliquoted to obtain the correct ratios of DNA to lipid:
In quadruplicate, 30 μl of lipid was aliquoted onto DNA in four rows for each ratio. For the Lipo2000 control (2.5 w/w ratio to DNA), 152.5 μg of Lipo sample was aliquoted into 1847.5 μl of Optimem. 30 μl of this solution was aliquoted onto DNA in the Optimem in the last columns of each plate. The plates were incubated for 15-20 minutes, and then 36.5 μl of lipid+DNA complexes was transferred into 150 μl of media/Optimem, then add to cells. The media was aspirated off the cells, and 105 μl of the lipid/DNA/media/Optimem solution was added to the cells. The luciferase assay was performed after 48 hours.
Luminescence was analyzed using bright-glo assay kits (Promega). Briefly, 100 μl of bright-glo solution was added to each well of the microtiter plate containing media and cells. Luminescence was measured using a Mithras Luminometer (Berthold, Oak Ridge, Tenn.). In some cases, a neutral density filter (Chroma, Brattleboro, Vt.) was used to prevent saturation of the luminometer. A standard curve for Luciferase was generated by titration of Luciferase enzyme (Promega) into growth media in white microtiter plates. Luciferase in ng per well are calculated for each of the lipids at 2.5 w/w, 5 w/w, 10 w/w, 15 w/w, 20 w/w, and 25 w/w lipid to DNA based on the standard curve.
The table below summarizes the data as a % of the luciferase activity obtained from the use of Lipofectamine 2000. The table indicates the best lipids for transfection.

SMILES | Luciferase expression as a percentage of that achieved using Lipofectamine 2000 [%]
CCCCCCCCCCOC(=O)CCN(CC)CCCN(CC)CCC(=O)OCCCCCCCCCC [LB64] | 0.1
CCCCCCCCCCOC(=O)CCN1CCCN(CCC(=O)OCCCCCCCCCC)CC1 [LB70] | 0.1
CCCCCCCCCCOC(=O)CCN(CCC(=O)OCCCCCCCCCC)CCN(CC)CC [LB75] | 0.1
CCCCCCCCCCOC(=O)CCN(CCC(=O)OCCCCCCCCCC)CCN1CCCC1 [LB76] | 0.1
CCCCCCCCCCOC(=O)CCN(CCC(=O)OCCCCCCCCCC)CCC1CCCN1C (centres unmarked) [LB77] | 0.1
CCCCCCCCCCOC(=O)CCN(CCC(=O)OCCCCCCCCCC)C(C)CN(C)C (centres unmarked) [LB79] | 0.1
CCCCCCCCCCOC(=O)CCN(CCCN(C)C)CCC(=O)OCCCCCCCCCC [LB80] | 0.7
CCCCCCCCCCOC(=O)CCN(CCCN(CC)CC)CCC(=O)OCCCCCCCCCC [LB81] | 0.4
CCCCCCCCCCCCOC(=O)CCN(CCN(CCC(=O)OCCCCCCCCCCCC)C(C)C)C(C)C [LD62] | 0.4

same assay, conditions: lipid/DNA 5 w/w; 300 ng Luciferase DNA per well; luciferase assay after 48 hours

SMILES | Luciferase expression as a percentage of that achieved using Lipofectamine 2000 [%]
CCCCCCCCCCOC(=O)CCN(CC)CCCN(CC)CCC(=O)OCCCCCCCCCC [LB64] | 0.1
CCCCCCCCCCOC(=O)CCN1CCCN(CCC(=O)OCCCCCCCCCC)CC1 [LB70] | 0.1
CCCCCCCCCCOC(=O)CCN(CCC(=O)OCCCCCCCCCC)CCN(CC)CC [LB75] | 0.1
CCCCCCCCCCOC(=O)CCN(CCC(=O)OCCCCCCCCCC)CCN1CCCC1 [LB76] | 0.1
CCCCCCCCCCOC(=O)CCN(CCC(=O)OCCCCCCCCCC)CCC1CCCN1C (centres unmarked) [LB77] | 0.1
CCCCCCCCCCOC(=O)CCN(CCC(=O)OCCCCCCCCCC)C(C)CN(C)C (centres unmarked) [LB79] | 0.1
CCCCCCCCCCOC(=O)CCN(CCCN(C)C)CCC(=O)OCCCCCCCCCC [LB80] | 0.8
CCCCCCCCCCOC(=O)CCN(CCCN(CC)CC)CCC(=O)OCCCCCCCCCC [LB81] | 0.4
CCCCCCCCCCCCOC(=O)CCN(CCN(CCC(=O)OCCCCCCCCCCCC)C(C)C)C(C)C [LD62] | 0.4

same assay, conditions: lipid/DNA 10 w/w; 300 ng Luciferase DNA per well; luciferase assay after 48 hours

SMILES | Luciferase expression as a percentage of that achieved using Lipofectamine 2000
CCCCCCCCCCOC(=O)CCN(CC)CCCN(CC)CCC(=O)OCCCCCCCCCC [LB64] | 0.2% and 0.1%
CCCCCCCCCCOC(=O)CCN1CCCN(CCC(=O)OCCCCCCCCCC)CC1 [LB70] | 0.1%
CCCCCCCCCCOC(=O)CCN(CCC(=O)OCCCCCCCCCC)CCN(CC)CC [LB75] | 0.1%
CCCCCCCCCCOC(=O)CCN(CCC(=O)OCCCCCCCCCC)CCN1CCCC1 [LB76] | 0.1%
CCCCCCCCCCOC(=O)CCN(CCC(=O)OCCCCCCCCCC)CCC1CCCN1C (centres unmarked) [LB77] | 0.1%
CCCCCCCCCCOC(=O)CCN(CCC(=O)OCCCCCCCCCC)C(C)CN(C)C (centres unmarked) [LB79] | 0.1%
CCCCCCCCCCOC(=O)CCN(CCCN(C)C)CCC(=O)OCCCCCCCCCC [LB80] | 0.1%
CCCCCCCCCCOC(=O)CCN(CCCN(CC)CC)CCC(=O)OCCCCCCCCCC [LB81] | 0.2%
CCCCCCCCCCCCOC(=O)CCN(CCCCO)CCC(=O)OCCCCCCCCCCCC [LD28] | 1.7%
CCCCCCCCCCCCOC(=O)CCN(CCN(CCC(=O)OCCCCCCCCCCCC)C(C)C)C(C)C [LD62] | 0.4%

same assay, conditions: lipid/DNA 15 w/w; 300 ng Luciferase DNA per well; luciferase assay after 48 hours

SMILES | Luciferase expression as a percentage of that achieved using Lipofectamine 2000 [%]
CCCCCCCCCCOC(=O)CCN(CC)CCCN(CC)CCC(=O)OCCCCCCCCCC [LB64] | 0.1
CCCCCCCCCCOC(=O)CCN1CCCN(CCC(=O)OCCCCCCCCCC)CC1 [LB70] | 0.1
CCCCCCCCCCOC(=O)CCN(CCC(=O)OCCCCCCCCCC)CCN(CC)CC [LB75] | 0.1
CCCCCCCCCCOC(=O)CCN(CCC(=O)OCCCCCCCCCC)CCN1CCCC1 [LB76] | 0.1
CCCCCCCCCCOC(=O)CCN(CCC(=O)OCCCCCCCCCC)CCC1CCCN1C (centres unmarked) [LB77] | 0.2
CCCCCCCCCCOC(=O)CCN(CCC(=O)OCCCCCCCCCC)C(C)CN(C)C (centres unmarked) [LB79] | 0.1
CCCCCCCCCCOC(=O)CCN(CCCN(C)C)CCC(=O)OCCCCCCCCCC [LB80] | 0.2
CCCCCCCCCCOC(=O)CCN(CCCN(CC)CC)CCC(=O)OCCCCCCCCCC [LB81] | 0.3
CCCCCCCCCCCCOC(=O)CCN(CCCCO)CCC(=O)OCCCCCCCCCCCC [LD28] | 8.5
CCCCCCCCCCCCOC(=O)CCN(CCN(CCC(=O)OCCCCCCCCCCCC)C(C)C)C(C)C [LD62] | 0.4

same assay, conditions: lipid/DNA 20 w/w; 300 ng Luciferase DNA per well; luciferase assay after 48 hours

SMILES | Luciferase expression as a percentage of that achieved using Lipofectamine 2000 [%]
CCCCCCCCCCOC(=O)CCN(CC)CCCN(CC)CCC(=O)OCCCCCCCCCC [LB64] | 0.1
CCCCCCCCCCOC(=O)CCN1CCCN(CCC(=O)OCCCCCCCCCC)CC1 [LB70] | 0.1
CCCCCCCCCCOC(=O)CCN(CCC(=O)OCCCCCCCCCC)CCN(CC)CC [LB75] | 0.1
CCCCCCCCCCOC(=O)CCN(CCC(=O)OCCCCCCCCCC)CCN1CCCC1 [LB76] | 0.1
CCCCCCCCCCOC(=O)CCN(CCC(=O)OCCCCCCCCCC)CCC1CCCN1C (centres unmarked) [LB77] | 0.1
CCCCCCCCCCOC(=O)CCN(CCC(=O)OCCCCCCCCCC)C(C)CN(C)C (centres unmarked) [LB79] | 0.1
CCCCCCCCCCOC(=O)CCN(CCCN(C)C)CCC(=O)OCCCCCCCCCC [LB80] | 1.0
CCCCCCCCCCOC(=O)CCN(CCCN(CC)CC)CCC(=O)OCCCCCCCCCC [LB81] | 0.4
CCCCCCCCCCCCOC(=O)CCN(CCN(CCC(=O)OCCCCCCCCCCCC)C(C)C)C(C)C [LD62] | 0.4

same assay, conditions: lipid/DNA 25 w/w; 300 ng Luciferase DNA per well; luciferase assay after 48 hours

SMILES | Luciferase expression as a percentage of that achieved using Lipofectamine 2000
CCCCCCCCCCOC(=O)CCN(CC)CCCN(CC)CCC(=O)OCCCCCCCCCC [LB64] | 0.2% and 0.1%
CCCCCCCCCCOC(=O)CCN1CCCN(CCC(=O)OCCCCCCCCCC)CC1 [LB70] | 0.1%
CCCCCCCCCCOC(=O)CCN(CCC(=O)OCCCCCCCCCC)CCN(CC)CC [LB75] | 0.1%
CCCCCCCCCCOC(=O)CCN(CCC(=O)OCCCCCCCCCC)CCN1CCCC1 [LB76] | 0.1%
CCCCCCCCCCOC(=O)CCN(CCC(=O)OCCCCCCCCCC)CCC1CCCN1C (centres unmarked) [LB77] | 0.3%
CCCCCCCCCCOC(=O)CCN(CCC(=O)OCCCCCCCCCC)C(C)CN(C)C (centres unmarked) [LB79] | 0.1%
CCCCCCCCCCOC(=O)CCN(CCCN(C)C)CCC(=O)OCCCCCCCCCC [LB80] | 1.5%
CCCCCCCCCCOC(=O)CCN(CCCN(CC)CC)CCC(=O)OCCCCCCCCCC [LB81] | 0.5%
CCCCCCCCCCCCOC(=O)CCN(CCN(CCC(=O)OCCCCCCCCCCCC)C(C)C)C(C)C [LD62] | 0.5%
